The numbers were not newly measured in patent US9610269B2, “Method of treating a disease condition susceptible to baclofen therapy” (SUN PHARMA ADVANCED RESEARCH COMPANY LTD., priority 2010, dated 2017), which cites them from elsewhere.

The conditions of series [1]: at the actual pH values.
For series [2] the following is noted: in vivo.

As to `NCC(CC(=O)O)c1ccc(Cl)cc1` (stereo not shown) [baclofen, 4-amino-3-(p-chlorophenyl) butyric acid], in series [1], the “lipophilicity of the drug” value was “negligible”. Also, in series [2], the Plasma elimination half-life result is given as “approximately 3.5 hours”, the “fraction metabolized in the liver” value was 15% and the “serum concentration considered an effective concentration” value is no less than 80 ng/mL.
